From PubChem BioAssay (NCI)
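GI50 is the concentration that inhibits growth by half. TGI denotes the concentration required for complete inhibition of growth.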

How the values were obtained:
Experiment in all cases: NCI anticancer screen, dose series, 384-well format
[1] = tested on: HCT-15 colon
[2] = tested on: NCI-H226 lung
[3] = tested on: SW-620 colon
[4] = tested on: MCF7 breast
[5] = tested on: SK-MEL-2 melanoma
[6] = tested on: NCI/ADR-RES ovarian
[7] = tested on: SN12C renal
[8] = tested on: T-47D breast
[9] = tested on: DU-145 prostate
[10] = tested on: OVCAR-8 ovarian
[11] = tested on: SNB-19 CNS
[12] = tested on: SK-MEL-28 melanoma
[13] = tested on: U251 glioblastoma
[14] = tested on: SF-295 CNS
[15] = tested on: NCI-H322M lung
[16] = tested on: SR leukemia
[17] = tested on: PC-3 prostate
[18] = tested on: A549 NSCLC
[19] = tested on: HOP-92 NSCLC
[20] = tested on: OVCAR-5 ovarian
[21] = tested on: SK-MEL-5 melanoma
[22] = tested on: K-562 leukemia
[23] = tested on: SK-OV-3 ovarian
[24] = tested on: COLO 205 colon
[25] = tested on: HCT-116 colon
[26] = tested on: RXF 393 renal
[27] = tested on: UO-31 renal
[28] = tested on: HCC-2998 colon
[29] = tested on: OVCAR-3 ovarian
[30] = tested on: CCRF-CEM leukemia
[31] = tested on: HL-60(TB) leukemia
[32] = tested on: HT29 colon
[33] = tested on: KM12 colon
[34] = tested on: EKVX NSCLC
[35] = tested on: NCI-H522 lung
[36] = tested on: UACC-257 melanoma
[37] = tested on: UACC-62 melanoma
[38] = tested on: OVCAR-4 ovarian
[39] = tested on: MDA-MB-435 melanoma
[40] = tested on: IGROV1 ovarian
[41] = tested on: ACHN renal
[42] = tested on: CAKI-1 renal
[43] = tested on: HS 578T breast
[44] = tested on: NCI-H460 NSCLC
[45] = tested on: SF-268 CNS
[46] = tested on: A498 renal
[47] = tested on: MDA-MB-468 breast
[48] = tested on: MOLT-4 leukemia
[49] = tested on: SNB-75 CNS
[50] = tested on: SF-539 CNS
[51] = tested on: BT-549 breast
[52] = tested on: MALME-3M melanoma
[53] = tested on: TK-10 renal
[54] = tested on: LOX IMVI melanoma
[55] = tested on: 786-0 renal
[56] = tested on: HOP-62 NSCLC
[57] = tested on: MDA-MB-231 breast
[58] = tested on: M14 melanoma
[59] = tested on: NCI-H23 lung

O=C(Nc1ccc(O)c(NS(=O)(=O)c2ccc(F)cc2)c1)c1ccc(-c2ccccc2)cc1
GI50 [1]: 3.84 µM | TGI [1]: 11.8 µM | GI50 [2]: 8.98 µM | TGI [2]: 21.1 µM | GI50 [3]: 10.2 µM | TGI [3]: 22 µM | GI50 [4]: 3.87 µM | TGI [4]: 15.4 µM | GI50 [5]: 10.4 µM | TGI [5]: 22.2 µM | GI50 [6]: 5.28 µM | TGI [6]: 17.5 µM | GI50 [7]: 7.38 µM | TGI [7]: 19.7 µM | GI50 [8]: 8 µM | TGI [8]: 20.7 µM | GI50 [9]: 10.1 µM | TGI [9]: 21.8 µM | GI50 [10]: 3.73 µM | TGI [10]: 14.1 µM | GI50 [11]: 7.07 µM | TGI [11]: 19.3 µM | GI50 [12]: 11.4 µM | TGI [12]: 23.8 µM | GI50 [13]: 5.41 µM | TGI [13]: 17.1 µM | GI50 [14]: 10.5 µM | TGI [14]: 22.4 µM | GI50 [15]: 4.58 µM | TGI [15]: 16.6 µM | GI50 [16]: 1.65 µM | TGI [16]: 3.17 µM | GI50 [17]: 3.94 µM | TGI [17]: 14.4 µM | GI50 [18]: 5.05 µM | TGI [18]: 17 µM | GI50 [19]: 4.12 µM | TGI [19]: 14.4 µM | GI50 [20]: 10.2 µM | TGI [20]: 21.9 µM | GI50 [21]: 4.13 µM | TGI [21]: 15.3 µM | GI50 [22]: 3.68 µM | TGI [22]: 13.5 µM | GI50 [23]: 6.15 µM | TGI [23]: 18.4 µM | GI50 [24]: 11.5 µM | TGI [24]: 24 µM | GI50 [25]: 3.71 µM | TGI [25]: 12.7 µM | GI50 [26]: 1.68 µM | TGI [26]: 4.57 µM | GI50 [27]: 5.25 µM | TGI [27]: 16.9 µM | GI50 [28]: 4.56 µM | TGI [28]: 10.3 µM | GI50 [29]: 2.86 µM | TGI [29]: 10.6 µM | GI50 [30]: 2.24 µM | TGI [30]: 4.11 µM | GI50 [31]: 1.55 µM | TGI [31]: 2.91 µM | GI50 [32]: 12 µM | TGI [32]: 24.5 µM | GI50 [33]: 5.26 µM | TGI [33]: 18.3 µM | GI50 [34]: 4.13 µM | TGI [34]: 14 µM | GI50 [35]: 2.3 µM | TGI [35]: 6.5 µM | GI50 [36]: 7.05 µM | TGI [36]: 19.8 µM | GI50 [37]: 4.96 µM | TGI [37]: 17.6 µM | GI50 [38]: 3.24 µM | TGI [38]: 14.5 µM | GI50 [39]: 7.4 µM | TGI [39]: 20.2 µM | GI50 [40]: 3.62 µM | TGI [40]: 12.2 µM | GI50 [41]: 6.99 µM | TGI [41]: 19.7 µM | GI50 [42]: 5.16 µM | TGI [42]: 17.7 µM | GI50 [43]: 2.93 µM | TGI [43]: 15.5 µM | GI50 [44]: 2.9 µM | TGI [44]: 10.3 µM | GI50 [45]: 4.51 µM | TGI [45]: 15.2 µM | GI50 [46]: 3.57 µM | TGI [46]: 15.1 µM | GI50 [47]: 2.08 µM | TGI [47]: 7.66 µM | GI50 [48]: 1.69 µM | TGI [48]: 3.12 µM | GI50 [49]: 9.53 µM | TGI [49]: 21.2 µM | GI50 [50]: 5.63 µM | TGI [50]: 18.4 µM | GI50 [51]: 4.01 µM | TGI [51]: 13.1 µM | GI50 [52]: 4.06 µM | TGI [52]: 15.4 µM | GI50 [53]: 3.61 µM | TGI [53]: 11.8 µM | GI50 [54]: 3.87 µM | TGI [54]: 15 µM | GI50 [55]: 3.74 µM | TGI [55]: 12.6 µM | GI50 [56]: 9.69 µM | TGI [56]: 21.4 µM | GI50 [57]: 3.36 µM | TGI [57]: 13.5 µM | GI50 [58]: 6.4 µM | TGI [58]: 19 µM | GI50 [59]: 6.12 µM | TGI [59]: 18.6 µM
